# Reference: ChEMBL document CHEMBL1146662, “Novel inhibitors of bacterial protein synthesis: structure-activity relationships for 1,8-naphthyridine derivatives incorporating position 3 and 4 variants” (Bioorg Med Chem Lett, 2004)
# Biological target: not listed separately
# Experiment: Inhibitory concentration against luciferase synthesis in Streptococcus pneumoniae
# Assay type: functional
row,Structure (SMILES),IC50 [µM]
1,OCCNc1ccnc2nc(N3CCCC3)c(F)cc12,91
2,CCCNc1ccnc2nc(N3CCCC3)c(F)cc12,19
3,Oc1ccnc2nc(N3CCCC3)c(F)cc12,> 100
4,Fc1cc2c(N3CCNCC3)ccnc2nc1N1CCCC1,> 100
5,CC(Nc1ccnc2nc(N3CCCC3)c(F)cc12)c1ccccc1 (configuration not stated),> 100
6,O=C(NO)c1cnc2nc(N3CCCC3)c(F)cc2c1O,> 100
7,CC(C)CCNC(=O)c1cnc2nc(N3CCC(N)C3)c(F)cc2c1O (configuration not stated),25
8,CC(C)NC(=O)c1cnc2nc(N3CCC(N)C3)c(F)cc2c1O (configuration not stated),> 100
9,CN(C)CCNCc1cnc2nc(N3CCCC3)c(F)cc2c1O,> 100
10,CN(C)CCN(C)c1ccnc2nc(N3CCCC3)c(F)cc12,18
11,CC(C)CCN(C)C(=O)c1cnc2nc(N3CCC(N)C3)c(F)cc2c1O (configuration not stated),> 100
12,NC(=O)CNc1ccnc2nc(N3CCCC3)c(F)cc12,82
13,CCOC(=O)c1cnc2nc(N3CCCC3)c(F)cc2c1O,> 100
14,CCOC(=O)c1cnc2nc(N3CCC(N)C3)c(F)cc2c1O (configuration not stated),20
15,NC1CCN(c2nc3ncc(C(=O)O)c(O)c3cc2F)C1 (configuration not stated),5
16,CCN(CC)CCCNCc1cnc2nc(N3CCC(N)C3)c(F)cc2c1O (configuration not stated),10
17,NNc1ccnc2nc(N3CCCC3)c(F)cc12,89
18,NC1CCN(c2nc3ncc(CNCCCc4ccccc4)c(O)c3cc2F)C1 (configuration not stated),10
19,CC(=O)c1cnc2nc(N3CCC(N)C3)c(F)cc2c1O (configuration not stated),50
20,NC1CCN(c2nc3ncc(CNc4ccccc4)c(O)c3cc2F)C1 (configuration not stated),54
21,Oc1c(CNCc2ccccc2)cnc2nc(N3CCCC3)c(F)cc12,> 100
22,O=C(O)CNc1ccnc2nc(N3CCCC3)c(F)cc12,> 100
23,NCCNc1ccnc2nc(N3CCCC3)c(F)cc12,11
24,COCCNc1ccnc2nc(N3CCCC3)c(F)cc12,39
25,O=C(O)c1cnc2nc(N3CCCC3)c(F)cc2c1O,10
26,Oc1c(CNc2ccccc2)cnc2nc(N3CCCC3)c(F)cc12,> 100
27,O=Cc1cnc2nc(N3CCCC3)c(F)cc2c1O,> 100
28,NC(=O)c1cnc2nc(N3CCC(N)C3)c(F)cc2c1O (configuration not stated),23
29,NC1CCN(c2nc3ncc(CNCc4ccccc4)c(O)c3cc2F)C1 (configuration not stated),25
30,OCc1cnc2nc(N3CCCC3)c(F)cc2c1O,> 100

# System: Haemophilus influenzae
# Experiment: Antibacterial activity against Haemophilus influenzae GYR 1435
# Assay type: functional
row,Structure (SMILES),MIC [mg/L]
1,NC1CCN(c2nc3ncc(C(=O)O)c(O)c3cc2F)C1 (configuration not stated),4
2,O=C(O)c1cnc2nc(N3CCCC3)c(F)cc2c1O,1
3,C[C@H]1COc2c(N3CCN(C)CC3)c(F)cc3c(=O)c(C(=O)O)cn1c23.C[C@H]1COc2c(N3CCN(C)CC3)c(F)cc3c(=O)c(C(=O)O)cn1c23.O [LEVOFLOXACIN],0.015

# System: Escherichia coli
# Experiment: Antibacterial activity against Escherichia coli in presence of permeabilizer and EDTA
# Assay type: functional
row,Structure (SMILES),MIC [mg/L]
1,NCCNc1ccnc2nc(N3CCCC3)c(F)cc12,32

# System: Streptococcus pneumoniae
# Experiment: Antibacterial activity against Quinolone-resistant Streptococcus pneumoniae 7257
# Assay type: functional
row,Structure (SMILES),MIC [mg/L]
1,NC1CCN(c2nc3ncc(C(=O)O)c(O)c3cc2F)C1 (configuration not stated),32
2,O=C(O)c1cnc2nc(N3CCCC3)c(F)cc2c1O,4

# System: Escherichia coli
# Experiment: Antibacterial activity against Escherichia coli
# Assay type: functional
row,Structure (SMILES),MIC [mg/L]
1,NCCNc1ccnc2nc(N3CCCC3)c(F)cc12,> 128
